Data taken from US20140038822A1, “USE OF SUBSTITUTED SPIROCYCLIC SULFONAMIDOCARBOXYLIC ACIDS, CARBOXYLIC ESTERS THEREOF, CARBOXAMIDES THEREOF AND CARBONITRILES THEREOF OR SALTS THEREOF FOR ENHANCEMENT OF STRESS TOLERANCE IN PLANTS” (BAYER INTELLECTUAL PROPERTY GMBH, priority 2010, published 2014).

Tests used:
Type in all cases: in vivo
[1] = test system: TRZAS (Triticum aestivum); test: Drought stress test on crop plants in greenhouse, spray application, efficacy vs untreated stressed control (TRZAS); conditions: dosage 25 g/ha, efficacy = percentage reduction in the intensity of damage vs untreated stressed control, mean of three results
Method: (§1) Seeds of monocotyledonous and dicotyledonous crop plants were placed in sandy loam in wood-fiber pots, covered with soil and cultivated in a greenhouse under good growth conditions. The test plants were treated at the early leaf stage (BBCH10 BBCH13). To ensure uniform water supply before commencement of stress, the potted plants were supplied with the maximum amount of water immediately beforehand by dam irrigation and, after application, transferred in plastic inserts in order to prevent subsequent, excessively rapid drying. The inventive compounds, formulated in the form of wettable powders (WP), wettable granules (WG), suspension concentrates (SC) or emulsion concentrates (EC), were sprayed onto the green parts of the plants as an aqueous suspension at an equivalent water application rate of […] with addition of 0.2% wetting agent (agrotin). Substance application is followed immediately by stress treatment of the plants (cold or drought stress). For cold stress treatment, the plants were kept under the following controlled conditions: […]
(§2) After the recovery phase had ended, the intensities of damage were rated in visual comparison to untreated, unstressed controls of the same age (in the case of drought stress) or the same growth stage (in the case of cold stress). The intensity of damage was first assessed as a percentage (100%=plants have died, 0%=like control plants). […]

BRSNS (Brassica napus) = test: Drought stress test on crop plants in greenhouse, spray application, efficacy vs untreated stressed control (BRSNS); conditions: dosage 250 g/ha, mean of three results
Method: as §1, §2

ZEAMX (Zea mays) = test: Drought stress test on crop plants in greenhouse, spray application, efficacy vs untreated stressed control (ZEAMX); conditions: dosage 250 g/ha, efficacy = percentage reduction in the intensity of damage vs untreated stressed control, mean of three results
Method: as §1, §2

COC(=O)C1(NS(=O)(=O)c2ccc(OC)cc2)CCC(OC)CC1 (stereo not drawn) [I.37-87, Methyl 4-methoxy-1-{[(4-methoxyphenyl)sulfonyl]amino}-cyclohexanecarboxylate]
>5%: Efficacy (TRZAS) [1] | EF (BRSNS): Efficacy = percentage reduction in the intensity of damage (BRSNS (Brassica napus)) | EF (ZEAMX) (ZEAMX (Zea mays))
